# Measured values as given in patent US10172832B2, “Amide derivatives of N-urea substituted amino acids as formyl peptide receptor like-1 (FPRL-1) receptor modulators” (Allergan, Inc., priority 2011, dated 2019).
# Target: T1, FPRL-1 (Homo sapiens, UniProt P25090)
# T1 construct: expressed in transfected cells
# T1 sequence (P25090 1-351): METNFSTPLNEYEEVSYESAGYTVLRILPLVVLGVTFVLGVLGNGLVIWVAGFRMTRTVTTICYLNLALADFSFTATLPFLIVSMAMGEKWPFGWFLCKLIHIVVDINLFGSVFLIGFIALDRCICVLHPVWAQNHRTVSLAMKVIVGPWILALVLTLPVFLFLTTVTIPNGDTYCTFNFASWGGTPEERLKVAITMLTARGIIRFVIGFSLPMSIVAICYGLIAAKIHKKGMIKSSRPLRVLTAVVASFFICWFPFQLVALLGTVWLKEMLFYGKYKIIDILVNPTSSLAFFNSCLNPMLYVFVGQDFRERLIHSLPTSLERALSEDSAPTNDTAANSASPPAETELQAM
# Assay: compound-induced calcium activity on FLIPR Tetra in CHO-Gα16 cells stably expressing FPRL1
# Format: cell-based
# Details: for FPRL-1 Ga16-CHO (Rel. eff.): relative efficacy; for EC50: tested 0.61 to 10,000 nM, read-out: FPRL-1 Ga16-CHO EC50
# Protocol: CHO-Gα16 cells stably expressing FPRL1 were cultured in (F12, 10% FBS, 1% PSA, 400 μg/ml geneticin and 50 μg/ml hygromycin) and HEK-Gqi5 cells stable expressing FPR1 were cultured in (DMEM high glucose, 10% FBS, 1% PSA, 400 μg/ml geneticin and 50 μg/ml hygromycin). In general, the day before the experiment, 18,000 cells/well were plated in a 384-well clear bottom poly-d-lysine coated plate. The following day the screening compound-induced calcium activity was assayed on the FLIPR^Tetra. The drug plates were prepared in 384-well microplates using the EP3 and the MultiPROBE robotic liquid handling systems. Compounds were tested at concentrations ranging from 0.61 to 10,000 nM. Results are expressed as EC50 (nM) and efficacy values.
Compound,FPRL-1 Ga16-CHO (Rel. eff.),EC50
"CC(C)C[C@H](NC(=O)Nc1ccc(S(C)(=O)=O)cc1)C(=O)NCC(=O)O [Compound 78, {[(2S)-4-methyl-2-({[4-(methylsulfonyl)phenyl]carbamoyl}amino)pentanoyl]amino}acetic acid]",(1.12),459 nM
CCC[C@H](NC(=O)Nc1ccc(Br)cc1F)C(=O)NCC(=O)OC(C)(C)C [tert-butyl {[(2S)-2-{[(4-bromo-2-fluorophenyl)carbamoyl]amino}pentanoyl]amino}acetate],(0.95),83 nM
"CSCC[C@H](NC(=O)Nc1ccc(Br)cc1)C(=O)NCC(=O)O [Compound 82, {[(2S)-2-{[(4-bromophenyl)carbamoyl]amino}-4-(methylsulfanyl)butanoyl]amino}acetic acid]",(1.03),7 nM
"CC(=O)CNC(=O)[C@H](Cc1ccccc1)NC(=O)Nc1ccc(Br)cc1F [Compound 17, (2S)-2-{[(4-bromo-2-fluorophenyl)carbamoyl]amino}-N-(2-oxopropyl)-3-phenylpropanamide]",(0.94),12 nM
"CC(C)(C)OC(=O)CCNC(=O)[C@H](Cc1ccccc1)NC(=O)Nc1ccc(Br)cc1 [Compound 8, tert-butyl 3-{[(2S)-2-{[(4-bromophenyl)carbamoyl]amino}-3-phenylpropanoyl]amino}propanoate]",(1.00),255 nM
"CC[C@@H](C)[C@@H](NC(=O)Nc1ccc(Br)cc1)C(=O)NCC(=O)OC(C)(C)C [Compound 64, tert-butyl {[(2R,3R)-2-{[(4-bromophenyl)carbamoyl]amino}-3-methylpentanoyl]amino}acetate]",(0.44),3970 nM
CC(C)C[C@@H](NC(=O)Nc1ccc(Br)cc1F)C(=O)NCC(=O)O [{[(2R)-2-{[(4-bromo-2-fluorophenyl)carbamoyl]amino}-4-methylpentanoyl]amino}acetic acid],(0.87),1490 nM
"CC(C)(C)OC(=O)CNC(=O)C(Cc1c[nH]cn1)NC(=O)Nc1ccc(Br)cc1 (stereo not drawn) [Compound 84, tert-butyl {[2-{[(4-bromophenyl)carbamoyl]amino}-3-(1H-imidazol-4-yl)propanoyl]amino}acetate]",(0.95),263 nM
"CC(C)C[C@H](NC(=O)Nc1ccc(Br)cc1)C(=O)N[C@H](C(=O)O)C(C)C [Compound 44, (2S)-2-{[(2S)-2-{[(4-bromophenyl)carbamoyl]amino}-4-methylpentanoyl]amino}-3-methylbutanoic acid]",(1.13),1.83 nM
"CC(C)C[C@H](NC(=O)Nc1ccc(Br)cc1)C(=O)N[C@H](C(N)=O)c1ccccc1 [Compound 54, (2S)-N-[(1S)-2-amino-2-oxo-1-phenylethyl]-2-{[(4-bromophenyl)carbamoyl]amino}-4-methylpentanamide]",(0.99),84 nM
"CCC[C@H](NC(=O)Nc1ccc(Br)cc1)C(=O)NCC(=O)OC(C)(C)C [Compound 18, tert-butyl {[(2S)-2-{[(4-bromophenyl)carbamoyl]amino}-pentanoyl]amino}acetate]",(0.95),31 nM
"CCC[C@H](NC(=O)Nc1ccc(Br)cc1)C(=O)NCC(=O)O [Compound 5, {[(2S)-2-{[(4-bromophenyl)carbamoyl]amino}pentanoyl]amino}acetic acid]",(0.91),3.2 nM
"CC(C)C[C@H](NC(=O)Nc1ccc(Br)cc1F)C(=O)NCCO [Compound 36, (2S)-2-{[(4-bromo-2-fluorophenyl)carbamoyl]amino}-N-(2-hydroxyethyl)-4-methylpentanamide]",(1.05),77 nM
"CC[C@H](C)[C@H](NC(=O)Nc1ccc(Br)cc1)C(=O)NCC(N)=O [Compound 28, (2S,3S)—N-(2-amino-2-oxoethyl)-2-{[(4-bromophenyl)carbamoyl]amino}-3-methylpentanamide]",(0.81),4.6 nM
"CC(C)C[C@H](NC(=O)Nc1ccc([S+](C)[O-])cc1)C(=O)NCC(=O)O (stereo partly drawn) [Compound 77, {[(2S)-4-methyl-2-({[4-(methylsulfinyl)phenyl]carbamoyl}amino)pentanoyl]amino}acetic acid]",(1.21),358 nM
"CC(C)C[C@H](NC(=O)Nc1ccc(Br)cc1)C(=O)NCC(=O)N(C)C [Compound 61, (2S)-2-{[(4-bromophenyl)carbamoyl]amino}-N-[2-(dimethylamino)-2-oxoethyl]-4-methylpentanamide]",(0.90),1.4 nM

Compound,FPRL-1 Ga16-CHO (Rel. eff.),EC50
"CC[C@H](C)[C@H](NC(=O)Nc1ccc(Br)cc1)C(=O)NCC(=O)O [Compound 4, {[(2S,3S)-2-{[(4-bromophenyl)carbamoyl]amino}-3-methylpentanoyl]amino}acetic acid]",(1.00),2.7 nM
"CC(C)C[C@H](NC(=O)Nc1ccc(Br)cc1)C(=O)NCC(N)=O [Compound 32, (2S)-N-(2-amino-2-oxoethyl)-2-{[(4-bromophenyl)carbamoyl]amino}-4-methylpentanamide]",(1.08),1.05 nM
"CC(C)C[C@@H](NC(=O)Nc1ccc(Br)cc1)C(=O)NC(C)(C)C(=O)O [Compound 87, 2-{[(2R)-2-{[(4-bromophenyl)carbamoyl]amino}-4-methylpentanoyl]amino}-2-methylpropanoic acid]",(0.74),490 nM
"CC[C@H](C)[C@H](NC(=O)Nc1ccc(Br)cc1F)C(=O)NCC(=O)OC(C)(C)C [Compound 10, tert-butyl{[(2S,3S)-2-{[(4-bromo-2-fluorophenyl)carbamoyl]amino}-3-methylpentanoyl]amino}acetate]",(0.86),757 nM
"CC(C)C[C@H](NC(=O)Nc1ccc(Br)cc1)C(=O)NCC(C)(C)O [Compound 47, (2S)-2-{[(4-bromophenyl)carbamoyl]amino}-N-(2-hydroxy-2-methylpropyl)-4-methylpentanamide]",–,2.1 nM
"CSc1ccc(NC(=O)N[C@@H](CC(C)C)C(=O)NCC(=O)O)cc1 [Compound 70, {[(2S)-4-methyl-2-({[4-(methylsulfanyl)phenyl]carbamoyl}amino)pentanoyl]amino}acetic acid]",(1.05),2.95 nM
"CSc1ccc(NC(=O)N[C@@H](CC(C)C)C(=O)NCC(=O)OC(C)(C)C)cc1 [Compound 68, tert-butyl {[(2S)-4-methyl-2-({[4-(methylsulfanyl)phenyl]carbamoyl}amino)pentanoyl]amino}acetate]",(0.98),116 nM
"CCC[C@H](NC(=O)Nc1ccc(Br)cc1F)C(=O)NCCO [Compound 21, (2S)-2-{[(4-bromo-2-fluorophenyl)carbamoyl]amino}-N-(2-hydroxyethyl) pentanamide]",(0.87),105 nM
"CC(C)C[C@H](NC(=O)Nc1ccc(Br)cc1F)C(=O)NCC(=O)OC(C)(C)C [Compound 33, tert-butyl{[(2S)-2-{[(4-bromo-2-fluorophenyl)carbamoyl]amino}-4-methylpentanoyl]amino}acetate]",(1.19),134 nM
"CC(C)C[C@H](NC(=O)Nc1ccc(C(F)(F)F)cc1)C(=O)NCC(=O)OC(C)(C)C [Compound 62, tert-butyl {[(2S)-4-methyl-2-({[4-(trifluoromethyl)phenyl]carbamoyl}amino)pentanoyl]amino}acetate]",(0.81),309 nM
"CC[C@H](C)[C@H](NC(=O)Nc1ccc(Br)cc1F)C(=O)NCC(=O)O [Compound 3, {[(2S,3S)-2-{[(4-bromo-2-fluorophenyl)carbamoyl]amino}-3-methylpentanoyl]amino}acetic acid]",(0.95),5.5 nM
"CCC[C@H](NC(=O)Nc1ccc(Br)cc1)C(=O)NCC(=O)OCC [Compound 23, ethyl {[(2S)-2-{[(4-bromophenyl)carbamoyl]amino}-pentanoyl]amino}acetate]",(1.18),57 nM
"CC(C)CC(C)(NC(=O)Nc1ccc(Br)cc1)C(=O)NCC(=O)O (stereo not drawn) [Compound 56, {[2-{[(4-bromophenyl)carbamoyl]amino}-2,4-dimethylpentanoyl]amino}acetic acid]",(0.98),22 nM
"CSCC[C@H](NC(=O)Nc1ccc(Br)cc1)C(=O)NCC(=O)OC(C)(C)C [Compound 80, tert-butyl {[(2S)-2-{[(4-bromophenyl)carbamoyl]amino}-4-(methylsulfanyl)butanoyl]amino}acetate]",(0.98),127 nM
"CC(C)C[C@H](NC(=O)Nc1ccc(Br)cc1)C(=O)NCC(O)CO (stereo partly drawn) [Compound 47, (2S)-2-{[(4-bromophenyl)carbamoyl]amino}-N-(2,3-dihydroxypropyl)-4-methylpentanamide]",–,5.1 nM
